Source: patent US20260108615A1, “SELF-ASSEMBLED MUCOADHESIVE BIOPOLYMER PARTICLE RELEASE SYSTEM AND PREPARATION METHOD THEREOF” (SZEGEDI TUDOMÁNYEGYETEM, priority 2021, published 2026)
Values belong to the compound of their own block, whether it stands above or below them.

Legend:
Type in all cases: physicochemical
[1] = in-vitro drug-releasing profile of HBA; conditions: FIG. 18
[2] = in vitro DOX release through cellulose membrane into PBS buffer
Experimental: The DOX release was measured according to the following: the in vitro experiments of the DOX releasing were performed using a cellulose membrane (Sigma-Aldrich, avg. flat width 10 mm (0.4 in.)). The released DOX amount from the bare and conjugated form was spectrophotometrically measured by monitoring the change in the intensity of the characteristic absorbance peak of DOX at λ=481 nm. DOX concentration is directly proportional to the maximal absorption values estimated at 481 nm [CDOX (mg/ml) (A at 481 nm)/18.836; R^2=0.996], according to the calibration curve previously determined within the range of 0-0.066 mg/ml. Solid powder of pure drug and conjugated form (corresponding to 0.045 mg/ml of DOX) were inserted in a cellulose membrane that was closed and dropped into 20 ml of a PBS buffer solution with pH=7.4 (37° C.; 0.9 wt % NaCl content). 3 ml of the aqueous solution was pulled from the release media at selected interval times and DOX concentration was measured. The release profiles of DOX released from different forms are shown in FIG. 14a in percent form and FIG. 14b in concentration form, releasing from the bare DOX was too fast a process with a maximum releasing percent of 78%. […] According to Table 2, releasing from the bare DOX data were fitted with the Higuchi model that describes the drug release a diffusion process based on Fick's law which is square root time-dependent, assumes the diffusivity of the drug is constant.

[3] = in-vitro drug-releasing profile of KETO; conditions: FIG. 17

Structure (SMILES): OCc1ccc(O)cc1 [Bare HBA, 4-hydroxybenzyl alcohol]
HBA releasing process [1]: very rapid release process for the first 3 h

concentration of DOX in PBS buffer solution after one day (decomposition) ([2]; PBS at 37° C., after one day of release): continuously decreased
maximum releasing percent ([2]; PBS pH=7.4, 37° C., 0.9 wt % NaCl, cellulose membrane): 78%
Structure (SMILES): COc1cccc2c1C(=O)c1c(O)c3c(c(O)c1C2=O)C[C@@](O)(C(=O)CO)C[C@@H]3O[C@H]1C[C@H](N)[C@H](O)[C@H](C)O1 [Pure DOX, doxorubicin]
First-order model k ([2]; fit of DOX release data): 0.2689
Higuchi model k ([2]; fit of DOX release data): 36.808
Hixson-Crowell model k ([2]; fit of DOX release data): 0.0063
Korsmeyer-Peppas model k ([2]; fit of DOX release data): 26.18
Korsmeyer-Peppas model n (release exponent) ([2]; fit of DOX release data): 0.763
Zero-order model k ([2]; fit of DOX release data): 13.11

KETO releasing process [3]: fast releasing process for the first 5 h
Structure (SMILES): CC(C(=O)O)c1cccc(C(=O)c2ccccc2)c1 (stereo not shown) [bare KETO, ketoprofen]
